Where two headings read alike, the source gives them in different places.

One assay concerns p53. The experiment in a line: p21 luciferase assay (p53 inhibition) in U20S cells upon doxorubicin. It is filed as cell-based. As to conditions: for % Inhibition (p53 inhibition, p21 luciferase activity) / inhibition at 50 µM: compounds at 50 μM, doxorubicin-treated U20S cells; for Ability to inhibit p53-dependent p21 luciferase activity / p21 expression (SAR, words): compared with lead / ortho-methyl analogs. Here is the method: U20S Cells were transfected with p21 luciferase (1 μg) and renilla luciferase (100 ng) vectors in 6 well plate format using Fugene 6 (Roche). Briefly, total of 1.1 micrograms of vector was incubated with […] of Fugene 6 reagent for 30 min. After 3-4 hours of transfection, cell were treated with compounds for overnight, and then exposed to 300 nanogram of doxorubicin for next 24 hours. In these experiments, DMSO, transfected cells with empty vector and cell without doxorubicin were used as controls. DMSO concentration is maintained at 0.01%. Transfected cells with doxorubicin treatment were used as positive control. The luciferase activity was estimated by following the manufacturer's instruction (Promega) in a luminometer. […] The inhibitory activity (IC50) of a small molecule on p21 luciferase activity was obtained from the average of three biological replicates using PRISM software.

Another assay deals with U20S cells. The experiment in a line: BRDU incorporation / cell cycle analysis. As to conditions: for Prevention of doxorubicin-induced cell cycle arrest (decrease of BRDU incorporation): compound 50 μM, doxorubicin 5 μM, U20S cells. It is filed as cell-based. Here is the method:
BRDU incorporation assay for cell cycle evaluation was performed in 96 well plates using calorimetric based kit from Calbiochem (Cat# QiA58). Hundred microliter of 1×10^5/ml cells were plated in DMEM media (Mediatech) with 10% fetal bovine serum (FBS). After 12 hours cells were treated with compounds ischemin and MS 119 (50 μM) with or without doxorubicin treatment (5 μM). The controls were DMSO and untreated cells. BRDU was added for 24 hours treatment. After 24 hours cells were fixed and treated with anti-BRDU antibody. After washings, the wells were incubated with peroxidase. After final wash, the color was developed using TMB as substrate and the reaction was stopped with stop solution and optical density was estimated at 450 nm.
DNA damage induced by doxorubicin leads to p53 stimulated cellular responses including cell cycle arrest, damage repair, and apoptosis. To determine the effect of ischemin on dividing U20S cells, U20S cells were treated with 5-bromo-2-deoxyuridine (BRDU) and the incorporated BRDU during in DNA synthesis was measured using an ELISA assay.

The next assay deals with CBP BRD (Homo sapiens, UniProt Q92793). Kind of assay: Bromodomain binding affinity (tryptophan fluorescence binding assay). Here is the method:
(§1) Monitoring change of intrinsic tryptophan fluorescence of a protein induced by ligand binding can be used to determine ligand binding affinity (KD). This assay was used to assess ligand binding to the CBP BRD and ischemin binding to the BRDs from other transcription proteins as follows. The chemical ligands were prepared at 500-850 μM in the PBS buffer. Their serial dilutions by a factor of 1.5 in a 384-wells black plate were carried out using a Tecan EVO200 liquid handler down to a concentration of 0.5 nM. Protein was added to the compounds to a final concentration in each well of 5 μM. Tryptophan fluorescence of the protein was measured (with excitation set at 280 nm, emission at 350 nm) on a Tecan Safire2 reader. Inner filter correction was introduced to take into account the possible intrinsic fluorescence of the compound. […] KD was calculated based on the curve fitting.

In the next assay the target is T1, PCAF (Homo sapiens, UniProt Q92831).
T1 sequence (Q92831 723-827 limits assumed): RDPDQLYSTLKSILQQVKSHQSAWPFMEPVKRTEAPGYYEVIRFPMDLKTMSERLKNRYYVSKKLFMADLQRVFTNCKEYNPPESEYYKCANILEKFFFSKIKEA
Described as above. The protocol: as §1

In the next assay the target is BRD4-1 (Homo sapiens, UniProt O60885). Described as above. Here is the method: as §1
The target in the next assay is BRD4-2 (Homo sapiens, UniProt O60885). The assay is described as above. The protocol:
as §1

A further assay has as its system melanoma cells. Kind of assay: Melanoma cell proliferation in vitro. Conditions: FIG. 6, FIG. 7. The format is cell-based.
For the next assay, the system named is NF-κB. Kind of assay: TNFα-induced NF-kB activation, luciferase in NF-kB response element HEK293 cells. The format is cell-based. Conditions: Homo sapiens; NF-κB-response element stabilized HEK293 cells; read-out: IC50, inhibition of TNFα-induced activation of NF-κB. The protocol:
FIG. 5. […] A. NF-kB activation by TNFa (10 ng/mL). HEK 293 cells ([…]) in a 24-well plate were stabilized with NF-kB response element (NF-kB_RE) was treated with TNF. Twenty-four hours after the treatment, the cells were harvested and lysed, and luciferase activity was determined.
Dysregulation of macrophages and T cell functions trigger inflammatory responses contributing to IBD progression. Given its pro-inflammatory functions, NF-κB inhibition has anti-inflammatory effects, as shown by inhibition of IKK activity, which prevents phoshorylation and release of IκBα from NF-κB.

[1] abbreviates: Table 4, read-out: CBP (μM), bromodomain binding.
Where [2] appears, read: Table 4, read-out: PCAF (μM), bromodomain binding.
Where [3] appears, read: Table 4, read-out: BrD4-1 (μM), bromodomain binding.
[4] abbreviates: Table 4, read-out: BrD4-2 (μM), bromodomain binding.
Where [5] appears, read: Table 1, read-out: Binding Affinity, Kd BRD4-1.
Where [6] appears, read: Table 1, read-out: Binding Affinity, Kd BRD4-2.

CBP BRD, sequence (Q92793 1085-1192 limits assumed): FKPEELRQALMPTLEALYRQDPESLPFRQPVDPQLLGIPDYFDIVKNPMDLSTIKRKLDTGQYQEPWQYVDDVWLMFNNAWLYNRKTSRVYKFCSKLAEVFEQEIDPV

For “5-(4-hydroxy-3,5-isopropyl-phenylazo)-2,4-dimethylbenzenesulfonic acid [MS128]”, the “% Inhibition (p53 inhibition, p21 luciferase activity)” value (“% Inhibition” below) with p53 is listed as 47.2%.
`COc1cccc2c1C(=O)c1c(O)c3c(c(O)c1C2=O)C[C@@](O)(C(=O)CO)C[C@@H]3O[C@H]1C[C@H](N)[C@H](O)[C@H](C)O1` [doxorubicin, reference compound]: the “Decrease of BRDU incorporation” value in the assay with U20S cells (doxorubicin treatment of U20S cells) is on record as 45%.
In the case of `CCc1cc(/N=N/c2ccc(S(=O)(=O)O)cc2)ccc1O` [MS113, 4-(4-hydroxy-3-ethyl-phenylazo)-benzenesulfonic acid], in the assay on p53, the “Ability to inhibit p53-dependent p21 luciferase activity / p21 expression (SAR, words)” value is “reduced activity” and the inhibition (commonly the percentage by which the read-out fell short of the control) at 50 µM turned out to be 25.7%.
`CCC(=O)c1cc(N=Nc2cc(S(=O)(=O)O)c(C)cc2C)ccc1O` [MS127, 5-(4-hydroxyphenylazo-3-(1-propanone))-2,4-dimethylbenzenesulfonic acid]: the “% Inhibition” value with p53 is given as 86.8%.
The compound `Cc1cc(O)cc(C)c1/N=N/c1cc(Cl)c(O)c(S(=O)(=O)O)c1` [MS153] had an inhibition at 50 µM with p53 of 39%.
As for `CC(C)c1cc(N=Nc2ccc(S(=O)(=O)O)cc2)cc(C(C)C)c1O` [MS105, 4-(4-hydroxy-3,5-diisopropyl-phenylazo)-benzenesulfonic acid], in the assay with p53, the “Ability to inhibit p53-dependent p21 luciferase activity / p21 expression (SAR, words)” value is listed as “reduced activity” and the inhibition at 50 µM was 26.4%.
The compound `Cc1cc(/N=N/c2ccc(S(=O)(=O)O)cc2)c(C)c(C)c1O` [MS103, 4-(4-hydroxy-2,3,5-trimethyl-phenylazo)-benzenesulfonic acid] yielded an inhibition at 50 µM with p53 of 38.9%.
The same measure, in the same setting: as for `Cc1cc(O)cc(C)c1/N=N/c1ccc(S(=O)(=O)O)cc1` [MS100, 4-(4-hydroxy-2,6-dimethyl-phenylazo)-benzenesulfonic acid], the figure is 36.4%.
The same measure, in the same setting: as for `Cc1cc(C)c(S(=O)(=O)O)cc1N=Nc1cc(C)c(O)c(C(C)C)c1` [MS129, 5-(4-hydroxy-3-isopropyl-5-methyl-phenylazo)-2,4-dimethylbenzenesulfonic acid], the figure is 44.6%.
On to “5-(4-hydroxy-3-methyl-5-propene-phenylazo)-2,4-methylbenzenesulfonic acid [MS130]”, for which the “% Inhibition” value in the assay on p53 was found to be 40.4%.
For `Cc1cc(/N=N/c2ccc(S(=O)(=O)Nc3ccccn3)cc2)cc(C)c1O` [MS0129435], the Kd at CBP BRD (setting [1]) is greater than 100 µM; on PCAF (setting [2]) it was 4.5 µM; on BRD4-1 (setting [3]), 1.3 µM; on BRD4-2 (setting [4]), 2.4 µM.
`Cc1cc(/N=N/c2ccc(S(=O)(=O)O)cc2)ccc1O` [MS450]: in the assay with p53, the “Ability to inhibit p53-dependent p21 luciferase activity / p21 expression (SAR, words)” value was “marked increase” and at 50 µM the inhibition was 85.6%.
`Cc1cc(N=Nc2ccc(S(=O)(=O)O)cc2)cc(C(C)(C)C)c1O` [MS111, 4-(4-hydroxy-3-t-butyl-5-methyl-phenylazo)-benzenesulfonic acid]: in the assay with p53, the “Ability to inhibit p53-dependent p21 luciferase activity / p21 expression (SAR, words)” value was “reduced activity” and the inhibition at 50 µM is 22.8%.
As to `Cc1cc(C)c(S(=O)(=O)O)cc1/N=N/c1c(C)cc(O)cc1C` [MS119, 5-(2,6-dimethyl-4-hydroxyphenylazo)-2,4-dimethylbenzenesulfonic acid], the “Inhibition of p21 luciferase activity” value in the assay with p53 (U20S cells, FIG. 1A) is reported as “Dose-dependent inhibition”. For the same compound, at 50 µM the inhibition with p53 was 54%. Besides, the figures for the “Prevention of doxorubicin-induced cell cycle arrest (decrease of BRDU incorporation)” value with U20S cells and in the assay on U20S cells (listed as MS 119) were “prevents a doxorubicin-induced decrease of BRDU incorporation” and “almost completely prevented”, respectively.
As for `CCCc1cc(N=Nc2cc(S(=O)(=O)O)c(C)cc2C)ccc1O` [MS126, 5-(4-hydroxy-3-propyl-phenylazo)-2,4-dimethylbenzenesulfonic acid], in the assay with p53, the inhibition at 50 µM came out at 93.5%.
With `Cc1cc(/C=C/c2ccc(S(=O)(=O)Nc3ccccn3)cc2)cc(C)c1O` [CM0000255], the Kd at CBP BRD (Table 1, read-out: Binding Affinity, Kd CBP) was 32.8 µM; on CBP BRD (setting [1]), 33 µM; on PCAF (Table 1, read-out: Binding Affinity, Kd PCAF), less than 1 µM; on PCAF (setting [2]) it was less than 1 µM; on BRD4-1 (setting [5]) it was less than 1 µM; at BRD4-1 (setting [3]) it was less than 1 µM. Also, the Kd on BRD4-2 (setting [6]) and at BRD4-2 (setting [4]) was less than 1 µM throughout. Further, the “Inhibition of melanoma cell proliferation” value in the assay on melanoma cells was “capable of inhibiting melanoma cell proliferation”.
For `Cc1cc(C)c(S(=O)(=O)O)cc1/N=N/c1ccc(O)c(Cl)c1` [MS131, 5-(3-chloro-4-hydroxyphenylazo)-2,4-dimethylbenzenesulfonic acid], the inhibition at 50 µM with p53 stood at 49.7%.
Same read-out and setting: as for `Cc1cc(C)c(S(=O)(=O)O)cc1/N=N/c1cc(C)c(O)c(C)c1` [MS109, 5-(3,5-dimethyl-4-hydroxyphenylazo)-2,4-dimethylbenzenesulfonic acid], the figure is 60.1%.
Turning to `Cc1cc(/C=C/c2ccc(S(=O)(=O)Nc3ccccn3)cc2)c(NC(=O)OC(C)(C)C)cc1O` [CM0000278], the Kd at BRD4-1 (setting [5]) is 1.5 µM; on BRD4-2 (setting [6]), less than 1 µM.
For the compound `Cc1cc(NNc2ccc(S(=O)(=O)NCc3ccc(C(F)(F)F)cc3)cc2)c(N)cc1O` [MS0129433], in the assay with NF-κB, the IC50 (commonly the concentration that inhibits the measured activity by half) is 0.057 µM. Also, the Kd at CBP BRD (Table 5, read-out: CBP) is greater than 100 µM; at PCAF (Table 5, read-out: PCAF) it was greater than 100 µM; at BRD4-1 (Table 5, read-out: BrD4-1), 4.5 µM; on BRD4-2 (Table 5, read-out: BrD4-2), 21 µM.
As to `CCc1cc(/N=N/c2cc(S(=O)(=O)O)c(C)cc2C)ccc1O` [MS124, 5-(3-ethyl-4-hydroxyphenylazo)-2,4-dimethylbenzenesulfonic acid], the inhibition at 50 µM in the assay on p53 came to 25%.
`Cc1cc(O)c(N)cc1/N=N/c1cc(S(=O)(=O)O)c(C)cc1C` [MS135] gave an inhibition at 50 µM with p53 of 54.8%.
With `Cc1cc(C#Cc2ccc(S(=O)(=O)Nc3ccccn3)cc2)cc(C)c1O` [CM0000254], the Kd on BRD4-1 (setting [5]) is less than 1 µM; on BRD4-2 (setting [6]), 1.6 µM.
`Cc1cc(C)c(S(=O)(=O)O)cc1/N=N/c1cc(C)c(O)c(C)c1C` [MS146, 5-(2,3,5-trimethyl-4-hydroxyphenylazo)-2,4-dimethylbenzenesulfonic acid]: the inhibition at 50 µM in the assay with p53 amounted to 30.8%.
Still for that read-out and setting: to `Cc1cc(/N=N/c2cc(S(=O)(=O)O)c(C)cc2C)c(C)cc1O` [MS118] belongs 49.7%.
Turning to `Cc1cc(/N=N/c2ccc(S(=O)(=O)O)cc2)c(C)cc1O` [MS101, 4-(4-hydroxy-2,5-dimethyl-phenylazo)-benzenesulfonic acid], in the assay on p53, the “Ability to inhibit p53-dependent p21 luciferase activity / p21 expression (SAR, words)” value was “marked increase” and the inhibition at 50 µM was 82.9%.
Taken in the same sequence, the figures for `Cc1cc(/N=N/c2ccc(S(=O)(=O)O)cc2)cc(C)c1O` [MS451] were “marked increase” and 87.4%.
In the case of `Cc1cc(/C=C/c2ccc(S(=O)(=O)Nc3ccccn3)cc2)c(N)cc1O` [CM0000279], the Kd at BRD4-1 (setting [5]) was 2.1 µM; at BRD4-1 (setting [3]) it was 2 µM; at BRD4-2 (setting [6]) it was less than 1 µM; at BRD4-2 (setting [4]), less than 1 µM. Moreover, the “Inhibition of melanoma cell proliferation” value with melanoma cells is “capable of inhibiting melanoma cell proliferation”.

Source of the values: patent US20140066410A1, “INHIBITORS OF BROMODOMAINS AS MODULATORS OF GENE EXPRESSION” (ICAHN SCHOOL OF MEDICINE AT MOUNT SINAI, priority 2011, published 2014).
